Where two headings read alike, the source gives them in different places.
How the values were obtained:
[1] = system: normal nude mice; assay: Toxicity to normal nude mice
[2] = system: normal monkey kidney epithelial cell line CV-1; assay: Colony formation assay, normal monkey kidney epithelial cells CV-1; conditions: Primates, Epithelial cell, read-out: CV-1 (IC50), Table III; 24 h treatment, colony count after 7 to 10 days;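 note: colonies visualized by crystal violet staining, incubation at 37 °C, IC50 relative to untreated wells given culture medium alone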
[3] = system: human colon carcinoma cell line CX-1; assay: Colony formation assay, human colon carcinoma CX-1; format: cell-based; conditions: for IC50: Homo sapiens, Colon carcinoma cell, 24 h treatment, colony count after 7 to 10 days; for Selectivity (ratio of IC50 for CV-1 and IC50 for CX-1): CV-1/CX-1
[4] = system: human melanoma LOX; assay: Survival of nude mice implanted with human melanoma LOX; format: in vivo, human melanoma in male athymic Swiss nu/nu mouse; conditions: Mus musculus, ip, 24 h, read-out: T/C (survival)
Protocol: LOX, a human melanoma cell line, grown subcutaneously in nude mice was excised, trypsinized to yield a single cell suspension using a metal grid with a […]. Red blood cells were lysed by incubation with 0.17 molar ammonium chloride at 4° C. for 20 minutes. Five million viable trypan blue negative cells made up in 0.1 ml of Dulbecco modified Eagles' medium (DME) were injected into the peritoneal cavity of a male athymic Swiss nu/nu mouse. The control group and each treatment group consisted of 5 to 10 mice. Treatment was commenced the following day by intraperitoneal injection.
Ten control mice received 0.25 ml of 2% dextrose on those days the treated groups were injected with the compounds of this invention. The compounds of the General Formulas. (1) to (6) used in this invention which were tested are listed in Table VIII below and the results obtained are shown in Table VIII and FIG. 1-6 of the accompanying drawings. T/C is the ratio, expressed as a percentage of the mean survival age of the treated group to the mean survival age of the untreated control group.

[5] = system: human ovarian carcinoma OVCAR-3; assay: Survival of nude mice implanted with human ovarian carcinoma OVCAR-3; format: in vivo, human ovarian carcinoma in athymic Swiss nu/nu mice
Protocol: A human ovarian carcinoma cell line, OVCAR-3, was used. Ten million cells of this cell line were injected IP into ten athymic Swiss nu/nu mice. Ten mice into which these cancer cells had been injected were selected as a control group and received in equal volume of 5% dextrose as that of the treated group. The compounds of the General Formulas (1) to (6) which were tested and the results obtained are shown in Table IX below and in FIG. 7-9 of the accompanying drawings.

[6] = system: human colon carcinoma CX-1; assay: Anti-human colon carcinoma CX-1 activity in nude mice, tumor inhibition; format: in vivo, human colon carcinoma in Swiss nu/nu mice; conditions: Mus musculus, ip, 24 h
Text: Human colon carcinoma cell line CX-1 has been chosen by the National Cancer Institute as a mode for cancer drug screening (NCI Protocol 3C2H2). It was established in culture from the surgical explant of the primary colon adenocarcinoma of a person with no previous chemotherapy. The cultured CX-1 cells, upon subcutaneous injection, can grow readily in nude mice as a moderately- to well-differentiated human colon carcinoma. CEA is expressed as expected for differentiated colon carcinoma cells. Abundant keratin, consistent with epithelial origin, is present. Increased uptake and prolonged retention of delocalized lipophilic cations are observed.
Swiss nu/nu mice obtained from Taconic Farm were housed in a pathogen-free environment. Tumors subcutaneously passaged in nude mice were excised under sterile conditions and converted to a single cell suspension using a metal grid with a 0.4 mm mesh. Red blood cells were lysed by incubation with 0.17M ammonium chloride at 4° C. for 20 minutes. Cells were scored for viability with trypan blue. Viable CX-1 cells (2.5 million) made up in 0.1 ml of cell culture medium were injected subcutaneously into each nude mouse. The mice were randomly allocated into a control group (five mice) and a treatment group (five mice per group). The drug treatment was commenced the next day. Doses and schedules were developed empirically and were based mainly on information on LD50 and LD10 obtained from preliminary toxicity studies. The control group received an equivalent volume of hydroxylpropyl-β-cyclodextrin-5% glucose solution.
The pharmaceutical compositions tested comprised solutions in 5% glucose subjected to sonication at concentrations of 1 mg/ml. Those compounds which were not completely dissolved by this procedure were dissolved in hydroxypropyl-β-cyclodextrin using the following method. Hydroxypropyl-β-cyclodextrin (45 g) was mixed with 100 ml of sterilized, double distilled water and stirred for four hours. Each of the compounds to be tested (20 mg) was mixed with 10 ml of hydroxypropyl-β-cyclodextrin solution and sonicated for 60 minutes in the dark. This solution was then diluted in 5% glucose to yield a final compound concentration of 0.5 mg/ml, and further sonicated for 60 minutes in the dark to assure that the compound was completely dissolved.
When the growth of tumors in the control group reached the exponential phase and the size of the tumor was palpable (usually 20 to 30 days after tumor implantation), the experiments were terminated. Tumors in each mouse were excised and weighed using an analytical balance. Total tumor weight in each group from five mice was calculated. Per cent tumor inhibition between the treated group and the control group was then calculated for each group.

[7] = Table III, read-out: CX-1 (IC50)

Row | Compound | toxicity to normal nude mice [1] | IC50 [2] | IC50 [3, 7] | Selectivity (ratio of IC50 for CV-1 and IC50 for CX-1) ([3]; Table III) | other results
1 | CCN1/C(=C/C=C/c2sc3ccccc3[n+]2CC)Sc2ccccc21 [B, reference compound] | highly toxic to normal nude mice | 0.6 µg/mL | – | – | –
2 | CCN1/C(=C/C=C/c2sc3c4ccccc4ccc3[n+]2CC)Sc2c1ccc1ccccc21 [C, reference compound] | highly toxic to normal nude mice | < 0.1 µg/mL | 0.05 µg/mL | – | –
3 | CCN1CCSC1=CC=c1sc(=Cc2sc3c4ccccc4ccc3[n+]2CC)n(CC)c1=O [Compound 116] | – | – | – | – | response vs control in vivo at 5 mg/kg ([4]; 5 mg/kg, i.p. on day 1, 5, 9, 13, 17, 22): 582%; T/C (survival) ([5]; 5 mg/kg, i.p. on day 1, 5, 9, 14, 19, 23, 27, 48): > 378%; inhibition in vivo at 5 mg/kg ([6]; 5 mg/kg, i.p. on day 1, 6, 10, 14, 19, 23): 77%
4 | CCN1C(=CC=c2sc(=Cc3cc[n+](CC)c4ccccc34)n(CC)c2=O)C=Cc2ccccc21 [Compound 247] | – | 20 µg/mL | – | 200 | IC50 ([3]; read-out: CX-1 (IC50), Table III): 0.1 µg/mL; response vs control in vivo at 20 mg/kg ([4]; 20 mg/kg, i.p. on day 1, 2, 3, 4, 8, 9): 227%; T/C (survival) ([5]; 20 mg/kg, i.p. on day 1, 5, 9, 14, 23, 48): > 378%; inhibition in vivo at 20 mg/kg ([6]; 20 mg/kg, i.p. on day 1, 5, 11, 15, 20, 26, 34): 75%
5 | C=CCn1c(=Cc2sc3c4ccccc4ccc3[n+]2CC)sc(=CC=C2C=CN(CC)c3ccccc32)c1=O [Compound 290] | – | 2.5 µg/mL | 0.025 µg/mL | 100 | T/C (survival) ([5]; 2 mg/kg, i.p. on day 1, 5, 9, 18, 48): 356%
6 | CCN1C(=CC=c2sc(=Cc3sc4c([n+]3CC)CCCC4)n(CC)c2=O)Oc2ccccc21 [Compound A, reference compound] | less toxic to normal nude mice | 2 µg/mL | 0.04 µg/mL | – | –

From US5861424A, “Composition and method for treating cancer” (priority 1995, dated 1999)
